Measurements taken from patent publication US20260285855A1, “HETEROARYL DERIVATIVES AS DDRS INHIBITORS” (CHIESI FARMACEUTICI S.P.A., priority 2023, published 2026).

Columns and labels:
[1] = target: T1, DDR2 (Homo sapiens, UniProt Q16832); assay: LanthaScreen Europium Kinase Binding assay, DDR2; details: 5 nM DDR2, 10 nM Kinase Tracer 178, 1 h at rt; Ki from IC50 by Cheng-Prusoff; read-out: Ki DDR2
T1 construct: purchased Life Technologies
T1 sequence (Q16832 22-855): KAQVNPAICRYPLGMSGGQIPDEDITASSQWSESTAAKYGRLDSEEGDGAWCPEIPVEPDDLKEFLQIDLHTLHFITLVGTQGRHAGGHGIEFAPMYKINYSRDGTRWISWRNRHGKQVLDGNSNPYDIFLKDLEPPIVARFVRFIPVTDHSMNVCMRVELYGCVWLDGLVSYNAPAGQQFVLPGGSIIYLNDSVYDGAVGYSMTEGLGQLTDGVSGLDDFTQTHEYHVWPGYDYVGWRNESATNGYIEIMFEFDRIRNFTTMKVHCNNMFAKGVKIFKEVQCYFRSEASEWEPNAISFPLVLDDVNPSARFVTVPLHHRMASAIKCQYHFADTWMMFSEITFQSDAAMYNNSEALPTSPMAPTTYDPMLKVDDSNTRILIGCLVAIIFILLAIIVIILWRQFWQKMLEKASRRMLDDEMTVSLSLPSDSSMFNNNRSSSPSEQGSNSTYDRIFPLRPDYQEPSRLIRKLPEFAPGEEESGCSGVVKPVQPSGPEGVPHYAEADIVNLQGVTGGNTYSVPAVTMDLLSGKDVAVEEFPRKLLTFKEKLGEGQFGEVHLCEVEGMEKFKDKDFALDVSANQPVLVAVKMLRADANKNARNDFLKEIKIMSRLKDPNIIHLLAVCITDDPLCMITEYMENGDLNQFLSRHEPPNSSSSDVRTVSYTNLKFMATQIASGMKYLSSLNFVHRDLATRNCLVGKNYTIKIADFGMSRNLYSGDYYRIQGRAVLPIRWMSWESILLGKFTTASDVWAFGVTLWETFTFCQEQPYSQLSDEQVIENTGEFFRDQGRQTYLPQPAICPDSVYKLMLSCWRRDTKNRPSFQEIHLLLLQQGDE
Experimental: (§1) DDR1 and DDR2 binding assays were performed using Life Technologies LanthaScreen™ Europium Kinase Binding assay. […] IC50 values were determined in GraphPad Prism 7.0 software, using 4 parameter model: log (inhibitor) vs. response. IC50 values were converted in Ki using the Cheng-Prusoff equation (Ki-IC50/(1+ [Tracer]/Kd).

[2] = target: T2, DDR1 (Homo sapiens, UniProt Q08345); assay: LanthaScreen Europium Kinase Binding assay, DDR1; details: 5 nM DDR1, 20 nM Kinase Tracer 178, 1 h at rt; Ki from IC50 by Cheng-Prusoff; read-out: Ki DDR1
T2 construct: purchased Carna Biosciences
T2 sequence (Q08345 19-913): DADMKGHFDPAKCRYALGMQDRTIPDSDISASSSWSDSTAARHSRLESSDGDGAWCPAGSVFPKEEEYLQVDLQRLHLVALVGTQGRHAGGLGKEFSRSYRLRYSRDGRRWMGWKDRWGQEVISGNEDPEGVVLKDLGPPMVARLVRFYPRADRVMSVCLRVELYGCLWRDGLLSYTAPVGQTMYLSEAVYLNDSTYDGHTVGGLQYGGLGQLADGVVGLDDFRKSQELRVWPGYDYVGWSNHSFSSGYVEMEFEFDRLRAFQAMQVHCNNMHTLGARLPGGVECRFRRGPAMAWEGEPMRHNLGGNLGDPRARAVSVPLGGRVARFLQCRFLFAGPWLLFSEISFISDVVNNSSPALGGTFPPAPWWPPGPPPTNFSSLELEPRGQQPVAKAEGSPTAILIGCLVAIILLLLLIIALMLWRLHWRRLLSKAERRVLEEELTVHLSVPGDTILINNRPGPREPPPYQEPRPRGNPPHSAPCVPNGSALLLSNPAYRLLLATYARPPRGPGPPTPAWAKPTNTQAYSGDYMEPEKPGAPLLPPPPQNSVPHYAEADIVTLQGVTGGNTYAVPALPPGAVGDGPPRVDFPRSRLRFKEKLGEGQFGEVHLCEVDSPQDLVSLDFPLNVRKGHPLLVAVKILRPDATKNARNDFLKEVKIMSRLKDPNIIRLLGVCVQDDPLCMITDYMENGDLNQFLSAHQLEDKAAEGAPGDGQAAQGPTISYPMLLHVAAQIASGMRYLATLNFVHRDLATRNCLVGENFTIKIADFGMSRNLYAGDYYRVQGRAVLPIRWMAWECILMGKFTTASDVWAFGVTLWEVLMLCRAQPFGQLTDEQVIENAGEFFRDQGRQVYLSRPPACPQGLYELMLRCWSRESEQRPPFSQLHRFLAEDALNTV
Experimental: as §1

Compound | Ki [1] | Ki [2]
CC(C)c1cncc(NC(=O)NC2CC3(C2)CN(C(=O)c2cnn4ccsc24)C3)c1 [Example 35, 1-(5-isopropylpyridin-3-yl)-3-(2-(pyrazolo[5,1-b]thiazole-7-carbonyl)-2-azaspiro[3.3]heptan-6-yl)urea] | 5 to 25 nM | < 5 nM
COc1ccc(OC(F)(F)F)cc1NC(=O)NC1CC2(C1)CN(C(=O)c1cnn3ccn(C)c13)C2 [Example 36, 1-(2-methoxy-5-(trifluoromethoxy)phenyl)-3-(2-(1-methyl-1H-imidazo[1,2-b]pyrazole-7-carbonyl)-2-azaspiro[3.3]heptan-6-yl)urea] | 5 to 25 nM | < 5 nM
COc1ccc(Cl)cc1NC(=O)NC1CC2(C1)CN(C(=O)c1cnn3ccn(C)c13)C2 [Example 38, 1-(5-chloro-2-methoxyphenyl)-3-(2-(1-methyl-1H-imidazo[1,2-b]pyrazole-7-carbonyl)-2-azaspiro[3.3]heptan-6-yl)urea] | 5 to 25 nM | < 5 nM
Cn1ccn2ncc(C(=O)N3CC4(CC(NC(=O)Nc5cccc(S(F)(F)(F)(F)F)c5)C4)C3)c12 [Example 42, 1-(2-(1-methyl-1H-imidazo[1,2-b]pyrazole-7-carbonyl)-2-azaspiro[3.3]heptan-6-yl)-3-(3-(pentafluoro-16-sulfaneyl)phenyl)urea] | 5 to 25 nM | < 5 nM
Cc1ccc(-n2nc(C(C)(C)C)cc2NC(=O)NC2CC3(C2)CN(C(=O)c2cnn4ccn(C)c24)C3)cc1 [Example 43, 1-(3-(tert-butyl)-1-(p-tolyl)-1H-pyrazol-5-yl)-3-(2-(1-methyl-1H-imidazo[1,2-b]pyrazole-7-carbonyl)-2-azaspiro[3.3]heptan-6-yl)urea] | 5 to 25 nM | < 5 nM

The next lines start with the values.

Ki [1] | Ki [2] | Compound
> 100 nM | 5 to 25 nM | COc1cccc(NC(=O)NC2CC3(C2)CN(C(=O)c2cnn4ccsc24)C3)c1 [Example 33, 1-(3-methoxyphenyl)-3-(2-(pyrazolo[5,1-b]thiazole-7-carbonyl)-2-azaspiro[3.3]heptan-6-yl)urea]
< 5 nM | < 5 nM | Cn1ccn2ncc(C(=O)N3CC4(CC(NC(=O)Nc5cccc(CC(F)(F)F)c5)C4)C3)c12 [Example 34, 1-(2-(1-methyl-1H-imidazo[1,2-b]pyrazole-7-carbonyl)-2-azaspiro[3.3]heptan-6-yl)-3-(3-(2,2,2-trifluoroethyl)phenyl)urea]
5 to 25 nM | < 5 nM | Cn1ccn2ncc(C(=O)N3CC4(CC(NC(=O)Nc5cncc(C(F)(F)F)c5)C4)C3)c12 [Example 37, 1-(2-(1-methyl-1H-imidazo[1,2-b]pyrazole-7-carbonyl)-2-azaspiro [3.3]heptan-6-yl)-3-(5-(trifluoromethyl)pyridin-3-yl)urea]
< 5 nM | < 5 nM | Cn1ccn2ncc(C(=O)N3CC4(CC(NC(=O)Nc5cc(C#N)cc(C(F)(F)F)c5)C4)C3)c12 [Example 39, 1-(3-cyano-5-(trifluoromethyl)phenyl)-3-(2-(1-methyl-1H-imidazo[1,2-b]pyrazole-7-carbonyl)-2-azaspiro[3.3]heptan-6-yl)urea]
< 5 nM | < 5 nM | O=C(Nc1cccc(C(F)(F)F)c1)NC1CC2(C1)CN(C(=O)c1cnn3ccccc13)C2 [Example 40, 1-(2-(pyrazolo[1,5-a]pyridine-3-carbonyl)-2-azaspiro[3.3]heptan-6-yl)-3-(3-(trifluoromethyl)phenyl)urea]
5 to 25 nM | < 5 nM | O=C(Nc1cc(CO)cc(C(F)(F)F)c1)NC1CC2(C1)CN(C(=O)c1cnn3ccsc13)C2 [Example 41, 1-(3-(hydroxymethyl)-5-(trifluoromethyl)phenyl)-3-(2-(pyrazolo[5,1-b]thiazole-7-carbonyl)-2-azaspiro[3.3]heptan-6-yl)urea]
25 to 100 nM | 25 to 100 nM | O=C(Nc1cccc(C(F)(F)F)c1)NC1CC2(C1)CN(C(=O)c1ccncc1)C2 [Example 44, 1-(2-isonicotinoyl-2-azaspiro[3.3]heptan-6-yl)-3-(3-(trifluoromethyl)phenyl)urea]
